The values that follow come from patent US8163777B2, “Benzimidazolyl-pyridine compounds for inflammation and immune-related uses” (Synta Pharmaceuticals Corp., priority 2006, dated 2012).

The pIC50 is −log10 of the IC50, conventionally taken in molar units.

Molecules are shown by their SMILES. pIC50: −log10 of the molar value.

The test concerns IL-2 production. Nature of the test: Inhibition of IL-2 production in PHA-activated Jurkat cells (ELISA). Format: cell-based. The following applies: Homo sapiens, PHA 2.5 μg/mL, 20 hours. The method, then: Jurkat cells were placed in a 96 well plate (0.5 million cells per well in 1% FBS medium) then test compounds of this invention were added at different concentrations. After 10 minutes, the cells were activated with PHA (final concentration 2.5 μg/mL) and incubated for 20 hours at 37° C. under CO2. The final volume was 200 μL. Following incubation, the cells were centrifuged and the supernatants collected and stored at −70° C. prior to assaying for IL-2 production. A commercial ELISA kit (IL-2 Eli-pair, Diaclone Research, Besancon, France) was used to detect production of IL-2, from which dose response curves were obtained. The IC50 value was calculated as the concentration at which 50% of maximum IL-2 production after stimulation was inhibited versus a non-stimulation control.
For orientation: In an ELISA, binding on a coated surface is turned into a signal by an enzyme label.

[1] abbreviates: bin given with mixed units 500 nM-1 μM.

The compound `COc1ccc2c(c1)nc(C(F)(F)F)n2-c1ccc(NC(=O)Cc2cccs2)cc1` [Compound 94, 2-(Thien-2-yl)-N-[4-(2-trifluoromethyl-5-methoxy-benzoimidazol-1-yl)-phenyl]-acetamide] showed a pIC50 under setting [1] of 6.00 to 6.30.
The same measure, in the same setting: as for `O=C(Nc1cccc(F)c1F)c1ccc(-n2c(C(F)(F)F)nc3ccccc32)cc1` [Compound 46, N-(2,3-difluorophenyl)-4-(2-trifluoromethyl-benzoimidazol-1-yl)-benzamide], the figure is 6.00 to 6.30; as for `O=C(Nc1ccc(-n2c(C(F)(F)F)nc3ccccc32)nc1)c1cc(F)ccc1F` [Compound 41, 2,5-Difiuoro-N-[2-(2-trifluoromethyl-benzoimidazol-1-yl)-pyrid-5-yl]-benzamide], 6.00 to 6.30.
Turning to `COc1ccc2c(c1)nc(C(F)(F)F)n2-c1ccc(NC(=O)c2csnc2C)nc1` [Compound 194, 3-Methyl-isothiazole-4-carboxylic acid [5-(5-methoxy-2-trifluoromethyl-benzoimidazol-1-yl)-pyridin-2-yl]-amide], under setting [1], the pIC50 was 6.00 to 6.30.
As for `COc1ccc2c(c1)nc(C(F)(F)F)n2-c1ccc(NC(=O)c2ccc(SC)cc2)nc1` [Compound 210, N-[5-(5-Methoxy-2-trifluoromethyl-benzoimidazol-1-yl)-pyridin-2-yl]-4-methylsulfanyl-benzamide], the pIC50 (binned values) was less than 6.00.
Under “binned values”, `COc1ccc2c(c1)nc(C(F)(F)F)n2-c1ccc(NC(=O)c2ccncc2F)nc1` [Compound 201, 3-Fluoro-N-[5-(5-methoxy-2-trifluoromethyl-benzoimidazol-1-yl)-pyridin-2-yl]-isonicotinamide] had a pIC50 of 6.30 to 7.00.
Same read-out and setting: then `COc1cccc(C(=O)Nc2ccc(-n3c(C(F)(F)F)nc4cc(OC)ccc43)cn2)c1` [Compound 204, 3-Methoxy-N-[5-(5-methoxy-2-trifluoromethyl-benzoimidazol-1-yl)-pyridin-2-yl]-benzamide], with less than 6.00; and `Cc1nc2ccccc2n1-c1ccc(NC(=O)c2cccc(F)c2F)cc1` [Compound 59, 2,3-Difluoro-N-[4-(2-methyl-benzoimidazol-1-yl)-phenyl]-benzamide], with less than 6.00.
In turn, `CNCc1ccc(C(=O)Nc2ccc(-n3c(C(F)(F)F)nc4cc(OC)ccc43)cn2)cc1` [Compound 212, N-[5-(5-Methoxy-2-trifluoromethyl-benzoimidazol-1-yl)-pyridin-2-yl]-4-methylaminomethyl-benzamide] had a pIC50 (binned values) of less than 6.00.
The compound `O=C(Nc1ccc(-n2c(C(F)(F)F)nc3cccnc32)cc1)c1cccc(F)c1F` [Compound 44, 2,3-Difluoro-N-[4-(2-trifiuoromethyl-imidazo[4,5-b]pyrid-3-yl)-phenyl]-benzamide] showed a negative-log IC50 (pIC50) under setting [1] of 6.00 to 6.30.
Regarding `COc1ccc2c(c1)nc(C(F)(F)F)n2-c1ccc(NC(=O)c2cccc(Cl)c2Cl)nc1` [Compound 174, 2,3-Dichloro-N-[5-(5-methoxy-2-trifluoromethyl-benzoimidazol-1-yl)-pyridin-2-yl]-benzamide], the pIC50 (binned values) was greater than 7.00.
Still for that read-out and setting: as for `COc1ccc2c(c1)nc(C(F)(F)F)n2-c1ccc(NC(=O)C(C)C)nc1` [Compound 214, N-[5-(5-Methoxy-2-trifluoromethyl-benzoimidazol-1-yl)-pyridin-2-yl]-isobutyramide], the figure is less than 6.00; as for `COc1ccc2c(c1)nc(C(F)(F)F)n2-c1ccc(NC(=O)c2cccc([N+](=O)[O-])c2)nc1` [Compound 184, N-[5-(5-Methoxy-2-trifluoromethyl-benzoimidazol-1-yl)-pyridin-2-yl]-3-nitro-benzamide], 6.30 to 7.00; as for `COc1ccc2c(c1)nc(C(F)(F)F)n2-c1ccc(NC(=O)c2cccc(SC)c2)nc1` [Compound 209, N-[5-(5-Methoxy-2-trifluoromethyl-benzoimidazol-1-yl)-pyridin-2-yl]-3-methylsulfanyl-benzamide], less than 6.00.
As for `N#C/C(=C\c1ccc(-n2c(C(F)(F)F)nc3ccccc32)cc1)c1cc(F)ccc1F` [Compound 48, 1-(2,5-difluoro-phenyl)-3-[4-(2-trifluoromethyl-benzoimidazol-1-yl)-phenyl]-acrylonitrile], under setting [1], the pIC50 was 6.00 to 6.30.
Turning to `COc1ccc2c(c1)nc(C(F)(F)F)n2-c1ccc(NC(=O)c2ccccc2OC)nc1` [Compound 206, 2-Methoxy-N-[5-(5-methoxy-2-trifluoromethyl-benzoimidazol-1-yl)-pyridin-2-yl]-benzamide], the pIC50 (binned values) was less than 6.00.
For the compound `CCCC(=O)Nc1ccc(-n2c(C(F)(F)F)nc3cc(OC)ccc32)cn1` [Compound 167, N-[5-(5-Methoxy-2-trifluoromethyl-benzoimidazol-1-yl)-pyridin-2-yl]-butyramide], the pIC50 (binned values) was 6.30 to 7.00.
The same measure, in the same setting: as for `COc1ccc2c(c1)nc(C(F)(F)F)n2-c1ccc(NC(=O)c2cc([N+](=O)[O-])cc([N+](=O)[O-])c2)cc1` [Compound 81, 3,5-Dinitro-N-[4-(2-trifluoromethyl-5-methoxy-benzoimidazol-1-yl)-phenyl]-benzamide], the figure is 6.30 to 7.00; as for `COc1ccc2c(c1)nc(C(F)(F)F)n2-c1ccc(NC(=O)c2csnn2)nc1` [Compound 205, [1,2,3]Thiadiazole-4-carboxylic acid [5-(5-methoxy-2-trifluoromethyl-benzoimidazol-1-yl)-pyridin-2-yl]-amide], less than 6.00; as for `CCc1ccc(C(=O)Nc2ccc(-n3c(C(F)(F)F)nc4cc(OC)ccc43)cn2)cc1` [Compound 215, 4-Ethyl-N-[5-(5-methoxy-2-trifluoromethyl-benzoimidazol-1-yl)-pyridin-2-yl]-benzamide], less than 6.00.
The same measure, in the same setting: then `COc1ccc2c(c1)nc(C(F)(F)F)n2-c1ccc(NC(=O)c2ccc(Cl)cc2Cl)nc1` [Compound 176, 2,4-Dichloro-N-[5-(5-methoxy-2-trifluoromethyl-benzoimidazol-1-yl)-pyridin-2-yl]-benzamide], with greater than 7.00.
Where the note is “binned values”, `COc1ccc2c(c1)nc(C(F)(F)F)n2-c1ccc(NC(=O)C(C)(C)C)nc1` [Compound 213, N-[5-(5-Methoxy-2-trifluoromethyl-benzoimidazol-1-yl)-pyridin-2-yl]-2,2-dimethyl-propionamide] showed a pIC50 of less than 6.00.
Still for that read-out and setting: as for `COc1ccc2c(c1)nc(C(F)(F)F)n2-c1ccc(NC(=O)c2cccc(C)c2C)nc1` [Compound 202, N-[5-(5-Methoxy-2-trifluoromethyl-benzoimidazol-1-yl)-pyridin-2-yl]-2,3-dimethyl-benzamide], the figure is greater than 7.00.
Under setting [1], `COc1ccc2c(c1)nc(C(F)(F)F)n2-c1ccc(NC(=O)c2cccc(C)c2)nc1` [Compound 198, N-[5-(5-Methoxy-2-trifluoromethyl-benzoimidazol-1-yl)-pyridin-2-yl]-3-methyl-benzamide] showed a pIC50 of 6.00 to 6.30.
The compound `COc1ccc2c(c1)nc(C(F)(F)F)n2-c1ccc(NC(=O)c2ccccc2[N+](=O)[O-])nc1` [Compound 197, 2-Nitro-N-[5-(5-methoxy-2-trifluoromethyl-benzoimidazol-1-yl)-pyridin-2-yl]-benzamide] had a pIC50 (binned values) greater than 7.00.
Same read-out and setting: then `COc1ccc2c(c1)nc(C(F)(F)F)n2-c1ccc(NC(=O)c2ccc(N(C)C)cc2)nc1` [Compound 203, 4-Dimethylamino-N-[5-(5-methoxy-2-trifluoromethyl-benzoimidazol-1-yl)-pyridin-2-yl]-benzamide], with less than 6.00; and `COc1ccc2c(c1)nc(C(F)(F)F)n2-c1ccc(NC(=O)c2ccccc2F)nc1` [Compound 185, 2-Fluoro-N-[5-(5-methoxy-2-trifluoromethyl-benzoimidazol-1-yl)-pyridin-2-yl]-benzamide], with greater than 7.00; and `COc1ccc2c(c1)nc(C(F)(F)F)n2-c1ccc(NC(=O)CC(C)C)nc1` [Compound 189, N-[5-(5-Methoxy-2-trifluoromethyl-benzoimidazol-1-yl)-pyridin-2-yl]-3-methyl-butyramide], with greater than 7.00.
Same read-out and setting: as for `COc1ccc2c(c1)nc(C(F)(F)F)n2-c1ccc(NC(=O)c2cccc(I)c2)nc1` [Compound 181, 3-Iodo-N-[5-(5-methoxy-2-trifluoromethyl-benzoimidazol-1-yl)-pyridin-2-yl]-benzamide], the figure is less than 6.00.
Turning to `Nc1ccc(C(=O)Nc2ccc(-n3c(C(F)(F)F)nc4ccccc43)cc2)c(F)c1F` [Compound 43, 2,3-Difluoro-4-amino-N-[4-(2-trifluoromethyl-benzoimidazol-1-yl)-phenyl]-benzamide], under setting [1], the pIC50 was 6.00 to 6.30.
Take `COc1ccc2c(c1)nc(C(F)(F)F)n2-c1ccc(NC(=O)c2cccc(Cl)c2)nc1` [Compound 179, 3-Chloro-N-[5-(5-methoxy-2-trifluoromethyl-benzoimidazol-1-yl)-pyridin-2-yl]-benzamide]: the pIC50 (binned values) was 6.30 to 7.00.
`COc1ccc2c(c1)nc(C(F)(F)F)n2-c1ccc(NC(=O)c2ccc(I)cc2)nc1` [Compound 182, 4-Iodo-N-[5-(5-methoxy-2-trifluoromethyl-benzoimidazol-1-yl)-pyridin-2-yl]-benzamide] had a pIC50 under setting [1] of 6.00 to 6.30.
For the compound `COc1ccc2c(c1)nc(C(F)(F)F)n2-c1ccc(NC(=O)c2scnc2Br)nc1` [Compound 195, 4-Bromo-thiazole-5-carboxylic acid [5-(5-methoxy-2-trifluoromethyl-benzoimidazol-1-yl)-pyridin-2-yl]-amide], where the note is “binned values”, the pIC50 was 6.30 to 7.00.
Under setting [1], `Cc1cc2nc(C(F)(F)F)n(-c3ccc(NC(=O)c4cccc(F)c4F)cc3)c2cc1C` [Compound 42, 2,3-Difluoro-N-[4-(2-trifluoromethyl-5,6-dimethyl-benzoimidazol-1-yl)-phenyl]-benzamide] had a pIC50 of 6.00 to 6.30.
For the compound `COc1ccc2c(c1)nc(C(F)(F)F)n2-c1ccc(NC(=O)c2cccc(F)c2)nc1` [Compound 186, 3-Fluoro-N-[5-(5-methoxy-2-trifluoromethyl-benzoimidazol-1-yl)-pyridin-2-yl]-benzamide], under setting [1], the pIC50 is 6.00 to 6.30.
